# Results reported in patent publication US20230085307A1, “PYRIDAZINONE COMPOUND AND HERBICIDE” (NISSAN CHEMICAL CORPORATION, priority 2019, published 2023).
# Assays:
# barnyard grass [1] = assay: Test Example 3: herbicidal effect by foliage application, Wagner pot (Table 18, symbol H); type: in vivo, barnyard grass (Echinochloa crus-galli); settings: for herbicidal effect on H: barnyard grass: amount of applied herbicide 320 g/ha
# Protocol: (§1) [Test Example 3] Herbicidal Effect Test by Foliage Application After alluvial soil was placed into 1/10000 are of Wagner pot, water was poured and mixed to form a submerged condition having a water depth of 0.1 cm to 0.5 cm. Seeds of barnyard grass, Chinese sprangletop, rice flat sedge, and rice were sowed and the pot was placed in a greenhouse at 25° C. to 30° C. for growth of the plants. After 14-day growth of the plants, the emulsion agent of the compound of the present invention prepared according to Formulation Example 2 was diluted with water so as to achieve a predetermined herbicide amount, and the diluted emulsion agent was uniformly applied to a foliage part with a small-sized spray. Three weeks after the herbicide application, the effect of the herbicide on each plant was evaluated according to the criteria of Test Example 1.
# rice flat sedge = assay: Test Example 3: herbicidal effect by foliage application, Wagner pot (Table 18, symbol E); type: in vivo, rice flat sedge (Cyperus iria); settings: for herbicidal effect on E: rice flat sedge: amount of applied herbicide 320 g/ha
# Protocol: as §1
# Chinese sprangletop = assay: Test Example 3: herbicidal effect by foliage application, Wagner pot (Table 18, symbol D); type: in vivo, chinese sprangletop (Leptochloa chinensis); settings: for herbicidal effect on D: Chinese sprangletop: amount of applied herbicide 320 g/ha
# Protocol: as §1
# velvetleaf = assay: Test Example 5: herbicidal effect by foliage application, plastic box (Table 20, symbol M); type: in vivo, velvetleaf (Abutilon theophrasti); settings: foliage application, 320 g/ha; for effect on velvetleaf (M): 3 weeks after application
# Text: (§2) [Test Example 5] Herbicidal Effect Test by Foliage Application
# (§3) Sterilized diluvial soil was placed in a plastic box having a length of 21 cm, a width of 13 cm, and a depth of 7 cm. The seeds of each of southern crabgrass, green foxtail, barnyard grass, wild oat, blackgrass, Italian ryegrass, windgrass, velvetleaf, redroot pigweed, lambsquarters, chickweed, false cleavers, persian speedwell, corn, soybean, rice, wheat, beet, and rapeseed were sowed in a spot-like manner and covered with the soil having a thickness of about 1.5 cm. Thereafter, the plants were grown in a greenhouse at 25° C. to 30° C. After 14-day growth of the plants, the emulsion agent of the compound of the present invention prepared according to Formulation Example 2 was diluted with water so as to achieve a predetermined herbicide amount, and the diluted emulsion agent was uniformly applied to a foliage part with a small-sized spray. Three weeks after the herbicide application, the effect of the herbicide on each plant was evaluated according to the criteria of Test Example 1.
# green foxtail = assay: Test Example 5: herbicidal effect by foliage application, plastic box (Table 20, symbol G); type: in vivo, green foxtail (Setaria viridis); settings: foliage application, 320 g/ha; for effect on green foxtail (G): 3 weeks after application
# Text: as §2, §3
# wild oat = assay: Test Example 5: herbicidal effect by foliage application, plastic box (Table 20, symbol I); type: in vivo, wild oat (Avena fatua); settings: foliage application, 320 g/ha; for effect on wild oat (I): 3 weeks after application
# Text: as §2, §3
# lambsquarters = assay: Test Example 5: herbicidal effect by foliage application, plastic box (Table 20, symbol O); type: in vivo, lambsquarters (Chenopodium album); settings: foliage application, 320 g/ha; for effect on lambsquarters (O): 3 weeks after application
# Text: as §2, §3
# windgrass = assay: Test Example 5: herbicidal effect by foliage application, plastic box (Table 20, symbol L); type: in vivo, windgrass (Apera spica-venti); settings: foliage application, 320 g/ha; for effect on windgrass (L): 3 weeks after application
# Text: as §2, §3
# persian speedwell = assay: Test Example 5: herbicidal effect by foliage application, plastic box (Table 20, symbol R); type: in vivo, Persian speedwell (Veronica persica); settings: foliage application, 320 g/ha; for effect on persian speedwell (R): 3 weeks after application
# Text: as §2, §3
# blackgrass = assay: Test Example 5: herbicidal effect by foliage application, plastic box (Table 20, symbol J); type: in vivo, blackgrass (Alopecurus myosuroides); settings: foliage application, 320 g/ha; for effect on blackgrass (J): 3 weeks after application
# Text: as §2, §3
# Italian ryegrass = assay: Test Example 5: herbicidal effect by foliage application, plastic box (Table 20, symbol K); type: in vivo, Italian ryegrass (Lolium multiflorum); settings: foliage application, 320 g/ha; for effect on Italian ryegrass (K): 3 weeks after application
# Text: as §2, §3
# southern crabgrass = assay: Test Example 5: herbicidal effect by foliage application, plastic box (Table 20, symbol F); type: in vivo, southern crabgrass (Digitaria ciliaris); settings: foliage application, 320 g/ha; for effect on southern crabgrass (F): 3 weeks after application
# Text: as §2, §3
# barnyard grass [2] = assay: Test Example 5: herbicidal effect by foliage application, plastic box (Table 20, symbol H); type: in vivo, barnyard grass (Echinochloa crus-galli); settings: foliage application, 320 g/ha; for effect on barnyard grass (H): 3 weeks after application
# Text: as §2, §3
structure (smiles),measurement,setting,value
CCCC(=O)Oc1c(OC)nn(C)c(=O)c1-c1c(-c2ccc(Oc3ccccc3)cc2)sc2ccccc12 [1-165],"herbicidal effect on H (barnyard grass), rating 0-5",barnyard grass [1]; 80 g/ha,2 (Herbicidal rate of 20% or more and less than 40%)
same,"herbicidal effect on E (rice flat sedge), rating 0-5",rice flat sedge; 80 g/ha,0 (Herbicidal rate of 5% or less (almost no effect))
same,"herbicidal effect on D (Chinese sprangletop), rating 0-5",Chinese sprangletop; 80 g/ha,0 (Herbicidal rate of 5% or less (almost no effect))
CCCC(=O)Oc1c(OC)nn(C)c(=O)c1-c1c(-c2ccsc2)sc2ccccc12 [1-193],"herbicidal effect on H (barnyard grass), rating 0-5",barnyard grass [1]; 80 g/ha,2 (Herbicidal rate of 20% or more and less than 40%)
same,"herbicidal effect on E (rice flat sedge), rating 0-5",rice flat sedge; 80 g/ha,0 (Herbicidal rate of 5% or less (almost no effect))
same,"herbicidal effect on D (Chinese sprangletop), rating 0-5",Chinese sprangletop; 80 g/ha,1 (Herbicidal rate of 5% or more and less than 20%)
COc1nn(C)c(=O)c(-c2c(-c3cc4ccccc4o3)sc3ccccc23)c1O [1-194],"herbicidal effect on H (barnyard grass), rating 0-5",barnyard grass [1]; 320 g/ha,0 (Herbicidal rate of 5% or less (almost no effect))
same,effect on velvetleaf (M),velvetleaf,0 (Herbicidal rate of 5% or less (almost no effect))
same,effect on green foxtail (G),green foxtail,0 (Herbicidal rate of 5% or less (almost no effect))
same,effect on wild oat (I),wild oat,1 (Herbicidal rate of 5% or more and less than 20%)
same,"herbicidal effect on E (rice flat sedge), rating 0-5",rice flat sedge; 320 g/ha,2 (Herbicidal rate of 20% or more and less than 40%)
same,"herbicidal effect on D (Chinese sprangletop), rating 0-5",Chinese sprangletop; 320 g/ha,0 (Herbicidal rate of 5% or less (almost no effect))
same,effect on lambsquarters (O),lambsquarters,0 (Herbicidal rate of 5% or less (almost no effect))
same,effect on windgrass (L),windgrass,0 (Herbicidal rate of 5% or less (almost no effect))
same,effect on persian speedwell (R),persian speedwell,0 (Herbicidal rate of 5% or less (almost no effect))
same,effect on blackgrass (J),blackgrass,0 (Herbicidal rate of 5% or less (almost no effect))
same,effect on Italian ryegrass (K),Italian ryegrass,3 (Herbicidal rate of 40% or more and less than 70%)
same,effect on southern crabgrass (F),southern crabgrass,0 (Herbicidal rate of 5% or less (almost no effect))
same,effect on barnyard grass (H),barnyard grass [2],0 (Herbicidal rate of 5% or less (almost no effect))
CCCC(=O)Oc1c(OC)nn(C)c(=O)c1-c1c(-c2cc3ccccc3o2)sc2ccccc12 [1-195],effect on velvetleaf (M),velvetleaf,0 (Herbicidal rate of 5% or less (almost no effect))
same,effect on green foxtail (G),green foxtail,0 (Herbicidal rate of 5% or less (almost no effect))
same,effect on wild oat (I),wild oat,0 (Herbicidal rate of 5% or less (almost no effect))
same,effect on lambsquarters (O),lambsquarters,0 (Herbicidal rate of 5% or less (almost no effect))
same,effect on windgrass (L),windgrass,0 (Herbicidal rate of 5% or less (almost no effect))
same,effect on persian speedwell (R),persian speedwell,0 (Herbicidal rate of 5% or less (almost no effect))
same,effect on blackgrass (J),blackgrass,0 (Herbicidal rate of 5% or less (almost no effect))
same,effect on Italian ryegrass (K),Italian ryegrass,0 (Herbicidal rate of 5% or less (almost no effect))
same,effect on southern crabgrass (F),southern crabgrass,0 (Herbicidal rate of 5% or less (almost no effect))
same,effect on barnyard grass (H),barnyard grass [2],0 (Herbicidal rate of 5% or less (almost no effect))
Cc1nn(C)c(=O)c(-c2c(-c3ccc(CO)cc3)sc3ccccc23)c1O [1-238],"herbicidal effect on H (barnyard grass), rating 0-5",barnyard grass [1]; 320 g/ha,4 (Herbicidal rate of 70% or more and less than 90%)
same,effect on velvetleaf (M),velvetleaf,5 (Herbicidal rate of 90% or more (almost completely withered))
same,effect on green foxtail (G),green foxtail,4 (Herbicidal rate of 70% or more and less than 90%)
same,effect on wild oat (I),wild oat,0 (Herbicidal rate of 5% or less (almost no effect))
same,"herbicidal effect on E (rice flat sedge), rating 0-5",rice flat sedge; 320 g/ha,4 (Herbicidal rate of 70% or more and less than 90%)
same,"herbicidal effect on D (Chinese sprangletop), rating 0-5",Chinese sprangletop; 320 g/ha,4 (Herbicidal rate of 70% or more and less than 90%)
same,effect on lambsquarters (O),lambsquarters,4 (Herbicidal rate of 70% or more and less than 90%)
same,effect on windgrass (L),windgrass,0 (Herbicidal rate of 5% or less (almost no effect))
same,effect on persian speedwell (R),persian speedwell,5 (Herbicidal rate of 90% or more (almost completely withered))
same,effect on blackgrass (J),blackgrass,0 (Herbicidal rate of 5% or less (almost no effect))
same,effect on Italian ryegrass (K),Italian ryegrass,3 (Herbicidal rate of 40% or more and less than 70%)
same,effect on southern crabgrass (F),southern crabgrass,3 (Herbicidal rate of 40% or more and less than 70%)
same,effect on barnyard grass (H),barnyard grass [2],3 (Herbicidal rate of 40% or more and less than 70%)
Cc1nn(C)c(=O)c(-c2c(-c3ccc(C(F)(F)F)cc3Cl)sc3ccc(F)cc23)c1O [2-356],herbicidal effect on H: barnyard grass,barnyard grass [1],4 (Herbicidal rate of 70% or more and less than 90%)
same,herbicidal effect on E: rice flat sedge,rice flat sedge,4 (Herbicidal rate of 70% or more and less than 90%)
same,herbicidal effect on D: Chinese sprangletop,Chinese sprangletop,4 (Herbicidal rate of 70% or more and less than 90%)
Cc1nn(C)c(=O)c(-c2c(-c3cnc(Cl)s3)sc3ccc(F)cc23)c1O [2-394],herbicidal effect on H: barnyard grass,barnyard grass [1],5 (Herbicidal rate of 90% or more (almost completely withered))
same,herbicidal effect on E: rice flat sedge,rice flat sedge,5 (Herbicidal rate of 90% or more (almost completely withered))
same,herbicidal effect on D: Chinese sprangletop,Chinese sprangletop,3 (Herbicidal rate of 40% or more and less than 70%)
COc1c(C)nn(C)c(=O)c1-c1c(-c2ccnc(F)c2)sc2ccc(F)cc12 [2-427],herbicidal effect on H: barnyard grass,barnyard grass [1],3 (Herbicidal rate of 40% or more and less than 70%)
same,herbicidal effect on E: rice flat sedge,rice flat sedge,2 (Herbicidal rate of 20% or more and less than 40%)
same,herbicidal effect on D: Chinese sprangletop,Chinese sprangletop,0 (Herbicidal rate of 5% or less (almost no effect))
Cc1nn(C)c(=O)c(-c2c(-c3ccc(OC(F)F)cc3)sc3c(Cl)cccc23)c1O [4-074],herbicidal effect on barnyard grass (H),barnyard grass [1]; 320 g/ha,4 (Herbicidal rate of 70% or more and less than 90%)
same,herbicidal effect on rice flat sedge (E),rice flat sedge; 320 g/ha,3 (Herbicidal rate of 40% or more and less than 70%)
same,herbicidal effect on Chinese sprangletop (D),Chinese sprangletop; 320 g/ha,0 (Herbicidal rate of 5% or less (almost no effect))
CCCC(=O)Oc1c(C)nn(C)c(=O)c1-c1c(-c2ccccc2O)sc2c(Cl)cccc12 [4-080],herbicidal effect on barnyard grass (H),barnyard grass [1]; 320 g/ha,2 (Herbicidal rate of 20% or more and less than 40%)
same,herbicidal effect on rice flat sedge (E),rice flat sedge; 320 g/ha,4 (Herbicidal rate of 70% or more and less than 90%)
same,herbicidal effect on Chinese sprangletop (D),Chinese sprangletop; 320 g/ha,3 (Herbicidal rate of 40% or more and less than 70%)
CCCC(=O)Oc1c(C)nn(C)c(=O)c1-c1c(-c2ccc(C(F)(F)F)cc2)sc2cc(Cl)c(Cl)cc12 [5-048],herbicidal effect on barnyard grass (H),barnyard grass [1]; 320 g/ha,3 (Herbicidal rate of 40% or more and less than 70%)
same,herbicidal effect on rice flat sedge (E),rice flat sedge; 320 g/ha,0 (Herbicidal rate of 5% or less (almost no effect))
same,herbicidal effect on Chinese sprangletop (D),Chinese sprangletop; 320 g/ha,4 (Herbicidal rate of 70% or more and less than 90%)
COc1cc2sc(-c3ccc(C#N)cc3)c(-c3c(O)c(C)nn(C)c3=O)c2cc1Cl [5-074],herbicidal effect on barnyard grass (H),barnyard grass [1]; 320 g/ha,3 (Herbicidal rate of 40% or more and less than 70%)
same,herbicidal effect on rice flat sedge (E),rice flat sedge; 320 g/ha,3 (Herbicidal rate of 40% or more and less than 70%)
same,herbicidal effect on Chinese sprangletop (D),Chinese sprangletop; 320 g/ha,5 (Herbicidal rate of 90% or more (almost completely withered))
COc1ccccc1-c1oc2ccc(Cl)cc2c1-c1c(O)c(C)nn(C)c1=O [9-001],herbicidal effect on velvetleaf (M),velvetleaf; three weeks after application,2 (Herbicidal rate of 20% or more and less than 40%)
same,herbicidal effect on green foxtail (G),green foxtail; three weeks after application,0 (Herbicidal rate of 5% or less (almost no effect))
same,herbicidal effect on wild oat (I),wild oat; three weeks after application,0 (Herbicidal rate of 5% or less (almost no effect))
same,herbicidal effect on lambsquarters (O),lambsquarters; three weeks after application,3 (Herbicidal rate of 40% or more and less than 70%)
same,herbicidal effect on windgrass (L),windgrass; three weeks after application,0 (Herbicidal rate of 5% or less (almost no effect))
same,herbicidal effect on persian speedwell (R),persian speedwell; three weeks after application,0 (Herbicidal rate of 5% or less (almost no effect))
same,herbicidal effect on blackgrass (J),blackgrass; three weeks after application,0 (Herbicidal rate of 5% or less (almost no effect))
same,herbicidal effect on Italian ryegrass (K),Italian ryegrass; three weeks after application,0 (Herbicidal rate of 5% or less (almost no effect))
same,herbicidal effect on southern crabgrass (F),southern crabgrass; three weeks after application,0 (Herbicidal rate of 5% or less (almost no effect))
same,herbicidal effect on barnyard grass (H),barnyard grass [2]; three weeks after application,0 (Herbicidal rate of 5% or less (almost no effect))
